These results are taken from article PMC8086144, “A novel peptide antagonist of the human growth hormone receptor” (The Journal of Biological Chemistry, 2021).

Structures are written as SMILES.

Test [1] addresses T1, mouse GHR (Mus musculus, UniProt P16882).
T1 construct: the mouse L fibroblasts express high levels of mouse GHR; host or cells: mouse L fibroblasts
T1 sequence (P16882 25-650): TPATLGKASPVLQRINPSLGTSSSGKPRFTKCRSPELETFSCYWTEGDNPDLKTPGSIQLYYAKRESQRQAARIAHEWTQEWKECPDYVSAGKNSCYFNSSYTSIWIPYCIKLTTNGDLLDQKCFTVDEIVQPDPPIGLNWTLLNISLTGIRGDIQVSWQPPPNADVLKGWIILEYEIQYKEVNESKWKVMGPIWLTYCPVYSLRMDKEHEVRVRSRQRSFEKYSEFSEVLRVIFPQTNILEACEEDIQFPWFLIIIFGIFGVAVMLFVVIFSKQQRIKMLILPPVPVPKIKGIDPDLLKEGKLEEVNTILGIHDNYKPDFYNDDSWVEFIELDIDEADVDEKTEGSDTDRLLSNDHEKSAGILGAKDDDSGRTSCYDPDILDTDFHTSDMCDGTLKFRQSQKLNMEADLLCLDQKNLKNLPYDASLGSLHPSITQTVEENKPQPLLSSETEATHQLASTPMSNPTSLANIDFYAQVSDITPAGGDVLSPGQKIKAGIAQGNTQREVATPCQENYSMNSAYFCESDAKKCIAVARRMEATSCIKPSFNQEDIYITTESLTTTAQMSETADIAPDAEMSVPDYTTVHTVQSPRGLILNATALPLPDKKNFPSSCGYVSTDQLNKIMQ
The test is described as follows: hGH-mediated pSTAT5 in L (mouse fibroblast) cells, Western blot. In kind it is cell-based. To be noted: 200 nM S1H with 2.5 nM hGH, 20 min, Western blot densitometry, n = 3. The protocol:
(§1) SK-MEL-28, MALME-3M, and T84 cells were grown and maintained in Eagle's Minimal Essential Medium. IM9 and L cells were grown in RPMI-1640 media and Dulbecco's modified Eagle's medium, respectively. All growth media was supplemented with 10% fetal bovine serum and 1× antibiotic-antimycotic […] solution. Cells were grown at 37 °C under a 5% CO2 atmosphere in a humidified incubator, and growth media was replaced every 48 h during incubation. No hGH was present in or added to the growth media unless specifically indicated. […]
(§2) Following treatment, the cells were harvested at the indicated time points, and the total protein was extracted. […] Sample protein concentration was quantified using a Bradford assay with bovine serum albumin as the protein standard. Absorbance at 595 nm was measured using a Spectramax 250 multimode plate reader (Molecular Devices) and processed using SoftmaxPro v4.7.1 software.
(§3) Cytosolic fractions from treated cells were thawed on ice, and 80 μg protein was loaded onto polyacrylamide gels for separation by SDS-PAGE. […] Chemiluminescence signals were detected using a GelDoc (BioRad) fluorescence imager. […] Percent inhibition was then measured by subtracting the pSTAT5 band intensity in each lane from the pSTAT5 band intensity of hGH-treated samples. […]
A general note: Immunoblotting shows a protein as a band on a membrane.

Test [2] concerns the target T2, hGHR (Homo sapiens, UniProt P10912).
T2 construct: previously reported to express high levels of endogenous hGHR; host or cells: SK-MEL-28, MALME-3M, IM9
T2 sequence (P10912 19-638): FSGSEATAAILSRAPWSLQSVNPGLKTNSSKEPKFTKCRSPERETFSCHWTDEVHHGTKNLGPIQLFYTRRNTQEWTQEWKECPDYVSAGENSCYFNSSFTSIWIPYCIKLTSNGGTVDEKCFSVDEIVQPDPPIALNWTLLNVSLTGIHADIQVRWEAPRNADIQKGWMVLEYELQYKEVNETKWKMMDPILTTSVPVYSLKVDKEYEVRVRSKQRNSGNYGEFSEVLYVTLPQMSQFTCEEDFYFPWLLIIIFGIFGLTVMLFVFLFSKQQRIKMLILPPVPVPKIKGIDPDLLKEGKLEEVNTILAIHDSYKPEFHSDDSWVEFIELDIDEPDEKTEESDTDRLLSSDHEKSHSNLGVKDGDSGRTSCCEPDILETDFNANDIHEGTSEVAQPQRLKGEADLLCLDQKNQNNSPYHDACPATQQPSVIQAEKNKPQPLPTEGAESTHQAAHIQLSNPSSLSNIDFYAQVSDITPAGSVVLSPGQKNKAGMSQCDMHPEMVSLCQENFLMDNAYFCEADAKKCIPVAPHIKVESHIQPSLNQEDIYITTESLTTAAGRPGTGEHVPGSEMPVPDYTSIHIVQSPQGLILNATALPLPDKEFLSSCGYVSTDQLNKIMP
Put plainly: hGH-mediated pSTAT5 in MALME-3M cells, Western blot. In kind it is cell-based. The note with it: 20 min. The protocol: as §1, §2, §3

As usually defined, the inhibition is how much of the control response was suppressed. Turning to `CC[C@H](C)[C@H](NC(=O)[C@H](Cc1ccc(O)cc1)NC(C)=O)C(=O)N1CCC[C@H]1C(=O)N[C@@H](CCCCN)C(=O)N[C@@H](CCC(=O)O)C(=O)N[C@@H](CCC(N)=O)C(=O)N[C@@H](CCCCN)C(=O)N[C@@H](Cc1ccc(O)cc1)C(=O)N[C@@H](CO)C(=O)N[C@@H](Cc1ccccc1)C(=O)N[C@@H](CC(C)C)C(=O)N[C@@H](CCC(N)=O)C(=O)N[C@@H](CC(N)=O)C(=O)N1CCC[C@H]1C(=O)N[C@@H](CCC(N)=O)C(=O)N[C@H](C(N)=O)[C@@H](C)O` [S1H], the “suppression of hGH-mediated pSTAT5” value in test [1] turned out to be 36%; in test [2] (200 nM S1H with 2.5 nM hGH, Western blot densitometry, n = 3), 56%. Also, in test [2] (50 nM inhibitor with 2.5 nM hGH, Western blot, compared with hGH alone, read-out: inhibition of hGH-induced pSTAT5), the inhibition at 0.05 µM worked out at 40%.
